US20230151065A1, “MULTI-DISULFIDE-BOND LONG-CHAIN PEPTIDE WITH NEURO[…], PHARMACEUTICAL COMPOSITION AND APPLICATION” (priority 2018, published 2023)
Where no end group is shown, it is not given here.

How the values were obtained:
[1] = system: PI3K/AKT signaling pathway in cortical neurons after OGD damage; test: OGD damage of cortical neurons with PI3K inhibitor LY-294002, Western blot of p-AKT and Cleaved caspase-3; type: cell-based, SD rat
[2] = system: primary cultured hippocampal neurons damaged by NMDA; test: NMDA damage of primary cultured hippocampal neurons, MTT viability; type: cell-based, SD (Sprague-Dawley) rat; conditions: for hippocampal neuron activity after NMDA damage (MTT): MK801 10 μM
Description: (1) Establishment of NMDA damage model. Primary culture of hippocampal neurons: SD (Sprague-Dawley) female rats pregnant for 18-19 days were anesthetized with a compound anaesthetic agent; fetal rat brains were taken under aseptic conditions and placed in HBSS solution (8.4 g/L of NaCl, 0.224 g/L of KCl, 2.38 g/L of HEPES, 500,000 units of penicillin sodium and 500,000 units of kanamycin sulfate; the pH was adjusted to 7.1-7.2 with 1M NaOH; then the osmotic pressure was adjusted to about 290±10 m Osm with ultrapure water; and after filtration, the solution was stored at 4° C.); the meninges were removed under a stereoscopic dissecting microscope; the bilateral hippocampus was removed and digested in 0.125% pancreatic protease at 37° C. for 10 min; and complete media (90% DMEM medium+10% FBS) (FBS: fetal bovine serum) was used to terminate the digestion; the bilateral hippocampus was washed for 3 times with the complete media to make a single cell suspension; the cell density was adjusted to about 7-8×10^5/ml; and the bilateral hippocampus was inoculated to a 6-well/96-well cell culture plate/60 mm culture dish/slide coated with L-polylysine. After 24 hours, the media were changed to serum-free neurobasal media (GIBCO) which were then placed in a 5% CO2, 37° C. incubator for culture; and half of the solution was changed every three days.
(2) NMDA damage treatment of hippocampal neurons: (1) The original media were sucked out and the cells were washed with magnesium-free extracellular fluid for three times, each for 5 minutes. (2) 10 mM NMDA (N-methyl-D-aspartic acid) and 10 mM Gly (glycine) were prepared with magnesium-free extracellular fluid, and NMDA was prepared to different concentrations with the magnesium-free extracellular fluid, wherein the final concentration of Gly was 10 μM. […] After damage, the cells were washed for three times with DMEM medium, each for 5 minutes. (3) The original culture media were re-added to continue for culturing for 24 hours.
(3) Detection of viability of hippocampal neurons after NMDA damage: (1) The hippocampal neurons were inoculated into a 96-well culture plate at 8×10^5 cells/ml, 0.1 ml per well, and cultured in a 5% CO2 incubator for 7-8 days. (2) After NMDA damage treatment and continuous culture for 24 hours, the culture solution was sucked off. (3) 100 μl of DMEM culture medium containing MTT (3-(4,5-dimethylthiazole-2)-2,5-diphenyltetrazolium bromide, 0.5 mg/ml) was added to each well, and the culture plate was put into 37° C., 5% CO2 incubator for culturing for 4 h. (4) 100 μl of 20% SDS was added to each well (20 g of sodium lauryl sulfate was dissolved in 50 ml of ddH2O+50 ml of N,N dimethylformamide) at 37° C. for 20 h. (5) The solution was shaken on a horizontal shaker for 5 min. (6) The optical density (OD) was measured at 570 nm (reference wavelength of 490 nm) on a microplate reader.
(6) Effect of ABPPk2 on decrease of hippocampal neuron activity caused by NMDA. Effect of different concentrations of ABPPk2 on hippocampal neuron damage caused by NMDA (100 μM, 30 min). The experiment was divided into 9 experimental groups: a normal group, NMDA (100 μM, 30 min) group (as a control group), ABPPk2 (0.01 μg/ml) group, ABPPk2 (0.1 μg/ml) group, ABPPk2 (0.3 μg/ml) group, ABPPk2 (1 μg/ml) group, ABPPk2 (3 μg/ml) group, ABPPk2 (10 μg/ml) group and MK801 (dizocilpine, 10 μM) group (as a positive control group). Three administration ways were adopted for ABPPk2: (1) ABPPk2 was administered 12 hours before and during the NMDA damage. (2) ABPPk2 was administered during NMDA damage. (3) ABPPk2 was administered during 24 hours of culture after NMDA damage.

[3] = after OGD and LY-294002 treatment, ABPPk2 high-dose group
[4] = after OGD damage, vs OGD group, ABPPk2 at high dose, LY-294002 30 min

Cys-Leu-Glu-Ser-Gly-Thr-Ser-Cys-Ile-Pro-Gly-Ala-Gln-His-Asn-Cys-Cys-Ser-Gly-Val-Cys-Val-Pro-Ile-Val-Thr-Ile-Phe-Tyr-Gly-Val-Cys-Tyr (CLESGTSCIPGAQHNCCSGVCVPIVTIFYGVCY; disulfide (positions not given here); not fully specified (bridges); also: three disulfide bonds, pairing not given here) [ABPPk2, 33 amino acid polypeptide isolated from the extract of Achyranthes bidentata Blume, three pairs of disulfide bonds]
expression of Cleaved caspase-3 [1, 3]: significantly down-regulated | expression of p-AKT [1, 3]: significantly up-regulated | expression of Cleaved caspase-3 [1, 4]: significantly down-regulated | expression of p-AKT [1, 4]: significantly up-regulated | hippocampal neuron activity after NMDA damage (MTT) ([2]; given 12 h before and during NMDA (100 μM, 0.5 h), ABPPk2 0.1, 0.3 and 1 μg/ml groups): can effectively reduce the decrease of hippocampal neuron activity caused by NMDA damage | hippocampal neuron activity after NMDA damage (MTT) ([2]; given during 24 h culture after NMDA damage (100 μM, 0.5 h), ABPPk2 0.1-10 μg/ml): can effectively reduce the decrease of hippocampal neuron activity caused by NMDA damage | hippocampal neuron activity after NMDA damage (MTT) ([2]; given during NMDA damage (100 μM, 0.5 h), ABPPk2 1 and 10 μg/ml groups): can effectively reduce the decrease of hippocampal neuron activity caused by NMDA damage | protective effect on NMDA damage of primary hippocampal neurons ([2]; overall statement, experimental solution of embodiment 6, concentration and administration way not stated): has a protective effect on the damage of primary cultured hippocampal neurons induced by NMDA
